Results: paper PMC9421653 (Journal of Medicinal Chemistry, 2022)

Molecular target: T1, human GPR84 (Homo sapiens, UniProt P04899+Q9NQS5)
T1 construct: expressed in transfected cells; host or cells: Flp-In T-REx 293 cells, doxycycline-induced; membrane preparations
Test: biochemical
Assay type: biochemical
Details: [35S]GTPγS assay; negative log of the IC50 in molar; mean ± SEM

T1 sequence (Q9NQS5+P04899 fused): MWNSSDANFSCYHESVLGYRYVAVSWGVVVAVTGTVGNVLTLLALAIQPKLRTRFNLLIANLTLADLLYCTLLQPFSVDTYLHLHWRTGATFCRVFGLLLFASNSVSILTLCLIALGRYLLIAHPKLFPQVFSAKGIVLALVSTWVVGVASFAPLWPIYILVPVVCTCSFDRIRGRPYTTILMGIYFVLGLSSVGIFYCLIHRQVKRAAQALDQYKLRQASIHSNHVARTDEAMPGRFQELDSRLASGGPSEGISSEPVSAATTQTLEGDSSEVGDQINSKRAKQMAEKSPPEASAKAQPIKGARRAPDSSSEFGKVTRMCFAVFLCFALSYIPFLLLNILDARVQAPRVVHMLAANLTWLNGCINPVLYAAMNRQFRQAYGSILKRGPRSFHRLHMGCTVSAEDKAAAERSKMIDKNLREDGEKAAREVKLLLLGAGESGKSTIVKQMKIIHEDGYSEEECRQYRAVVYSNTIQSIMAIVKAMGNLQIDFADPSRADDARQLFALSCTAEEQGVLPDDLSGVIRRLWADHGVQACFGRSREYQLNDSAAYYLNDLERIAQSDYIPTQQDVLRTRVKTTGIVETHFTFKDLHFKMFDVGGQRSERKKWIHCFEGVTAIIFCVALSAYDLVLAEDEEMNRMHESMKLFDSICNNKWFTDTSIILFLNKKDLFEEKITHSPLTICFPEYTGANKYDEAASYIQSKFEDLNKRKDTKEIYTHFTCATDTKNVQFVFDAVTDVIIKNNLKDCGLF

**Q.** With `COC(=O)c1ccc(-c2nc(Cc3c[nH]c4cnccc34)nnc2-c2ccccc2)cc1` [Compound 65, Methyl 4-(3-((1H-Pyrrolo[2,3-c]pyridin-3-yl)methyl)-6-phenyl-1,2,4-triazin-5-yl)benzoate] as the molecule, how does the “GTPγS (pIC50)” value read?
**A.** 7.37 ± 0.33

**Q.** For `c1ccc(-c2nnc(Cc3c[nH]c4ccccc34)nc2-c2ccccn2)nc1` [Compound 8, 3-((5,6-Di(pyridin-2-yl)-1,2,4-triazin-3-yl)methyl)-1H-indole], which “GTPγS (pIC50)” value is on record?
**A.** 5.70 ± 0.21

**Q.** How did the “GTPγS (pIC50)” value turn out when `c1ccc(-c2nc(Cc3c[nH]c4ccccc34)nnc2-c2cccnn2)cc1` [Compound 31, 3-((5-Phenyl-6-(pyridazin-3-yl)-1,2,4-triazin-3-yl)methyl)-1H-indole] was run?
**A.** 6.85 ± 0.03

**Q.** With `COC(=O)c1ccc(-c2nc(Cc3c[nH]c4ccccc34)nnc2-c2ccccc2)cc1` [Compound 49, Methyl 4-(3-((1H-Indol-3-yl)methyl)-6-phenyl-1,2,4-triazin-5-yl)benzoate] as the molecule, how does the “GTPγS (pIC50)” value read?
**A.** 6.74 ± 0.05

**Q.** How did the “GTPγS (pIC50)” value turn out when `CN1CCN(C(=O)c2ccc(-c3nnc(Cc4c[nH]c5ccccc45)nc3-c3ccccc3)cc2)CC1` [Compound 77, (4-(3-((1H-Indol-3-yl)methyl)-5-phenyl-1,2,4-triazin-6-yl)phenyl)(4-methylpiperazin-1-yl)methanone] was run?
**A.** 5.95 ± 0.10

**Q.** Which “GTPγS (pIC50)” value does the source give for `c1ccc(-c2nnc(NCc3cccnc3)nc2-c2ccccc2)cc1` [Compound 24, 5,6-Diphenyl-N-(pyridin-3-ylmethyl)-1,2,4-triazin-3-amine] here?
**A.** 5.47 ± 0.05

**Q.** How did the “GTPγS (pIC50)” value turn out when `CC(=O)NCc1ccc(-c2nnc(Cc3c[nH]c4ccccc34)nc2-c2ccccc2)cc1` [Compound 46, N-(4-(3-((1H-Indol-3-yl)methyl)-5-phenyl-1,2,4-triazin-6-yl)benzyl)acetamide] was run?
**A.** 7.98 ± 0.06

**Q.** For `CNC(=O)c1ccc(-c2nnc(Cc3c[nH]c4ccccc34)nc2-c2ccccc2)cc1` [Compound 73, 4-(3-((1H-Indol-3-yl)methyl)-5-phenyl-1,2,4-triazin-6-yl)-N-methylbenzamide], which “GTPγS (pIC50)” value is on record?
**A.** 7.18 ± 0.09

**Q.** With `CC(C)c1nnc(Cc2c[nH]c3ccccc23)nc1C(C)C` [Compound 9, 3-((5,6-Diisopropyl-1,2,4-triazin-3-yl)methyl)-1H-indole] as the molecule, how does the “GTPγS (pIC50)” value read?
**A.** 5.38 ± 0.05

**Q.** Which “GTPγS (pIC50)” value does the source give for `OCc1ccc(-c2nnc(Cc3c[nH]c4ccccc34)nc2-c2ccccc2)cc1` [Compound 40, (4-(3-((1H-Indol-3-yl)methyl)-5-phenyl-1,2,4-triazin-6-yl)phenyl)methanol] here?
**A.** 7.76 ± 0.06

**Q.** For `CN(C)Cc1ccc(-c2nnc(Cc3c[nH]c4ccccc34)nc2-c2ccccc2)cc1` [Compound 44, 1-(4-(3-((1H-Indol-3-yl)methyl)-5-phenyl-1,2,4-triazin-6-yl)phenyl)-N,N-dimethylmethanamine], which “GTPγS (pIC50)” value is on record?
**A.** 6.68 ± 0.05

**Q.** “Methyl 3-(3-((1H-Indol-3-yl)methyl)-5-phenyl-1,2,4-triazin-6-yl)benzoate [Compound 53]” was tested. Which “GTPγS (pIC50)” value did it give?
**A.** 6.40 ± 0.05

**Q.** Which “GTPγS (pIC50)” value does the source give for `CS(=O)(=O)c1ccc(-c2nnc(Cc3c[nH]c4ccccc34)nc2-c2ccccc2)cc1` [Compound 36, 3-((6-(4-(Methylsulfonyl)phenyl)-5-phenyl-1,2,4-triazin-3-yl)methyl)-1H-indole] here?
**A.** 6.18 ± 0.04

**Q.** How did the “GTPγS (pIC50)” value turn out when “3-((5-Phenyl-6-(pyrimidin-2-yl)-1,2,4-triazin-3-yl)methyl)-1H-indole or 3-((6-phenyl-5-(pyrimidin-2-yl)-1,2,4-triazin-3-yl)methyl)-1H-indole [Compound 32]” was run?
**A.** 6.58 ± 0.08
